No end group written: not given here. *: point of attachment. Cbz = O=C(OCc1ccccc1)*
Legend:
Assay type in all cases: biochemical, Kutzneria albida
[1] = system: KalbTG; assay: 5-mer peptide array, glutamine-substrate screening with biotinylated amine donor; conditions: incorporation of biotinylated amine-donor on 5-mer peptide array
Description: To identify potential acyl-donor and amine-donor substrates of the K. albida transglutaminase, high-throughput screening on 5-mer peptide arrays was performed (FIGS. 4A and 4B). An activity of at least 1.65 U/mg for both the SlyD-fused and the mature KalbTG enzymes was confirmed by commercial assay (Zedira MTG-ANiTA-KIT; compared to 4.3 U mg^−1 by the MTG supplied with the kit and a 0.07 U/mg blank value with BSA). The assay used β-casein as a cross-linking substrate and detected deamidation by a glutamate dehydrogenase dependent oxidation of NADPH. Specific recognition motifs were identified by assaying KalbTG with peptide arrays prepared by maskless array synthesis (U.S. Pat. Pub. No 2015/0185216 to Albert et al. filed on 19 Dec. 2014). The efficiency of the transamidation reaction between 1.4 million unique 5-mer peptides and a biotinylated amine donor was quantified on two arrays in parallel and the sequences of the peptides with the highest turnovers were determined (FIG. 4A). The nine best peptides were resynthesized and tested for KalbTG activity in a standalone GLDH-coupled assay. Note that the array signal for the sequence MLAQG (SEQ ID NO:13) is marked not applicable (n. a.) as this sequence was not included on the array. Similarly, measurement of a background signal was only applicable to experiments performed on the array.
(§1) For construction of the peptide array, a library of 1,360,732 unique 5-mer peptides was designed by using all combinations of 18 natural amino acids excluding cysteine and methionine, as well as any dimer or a longer repeat of the same amino acid, and any peptide containing a dipeptide selected from HR, RH, HK, KH, RK, KR, HP, and PQ sequences. The library was synthesized in duplicate on the same array by using maskless light-directed peptide array synthesis. Each 5-mer peptide was flanked on both the N-terminus and C-terminus by 3 amino acid-long linkers synthesized by using mixture of glycine and serine having a 3:1 ratio.
To test KalbTG specificity for glutamine-containing substrate, N-(biotinyl)cadaverine was used as a substitute for a lysine substrate to biotinylate glutamine-peptides on a peptide array. KalbTG labeling reaction was performed in 1200 μL 100 mM Tris-HCl pH 8, 1 mM DTT, 50 μM N-(biotinyl)cadaverine, 0.2 ng μl^−1 KalbTG in SecureSeal™ chamber (Grace Bio-Labs) at 37° C. for 45 minutes. After incubation the chamber was removed and the array was washed in 20 mM Tris-HCl, pH7.8, 0.2 M NaCl, 1% SDS for 1 minute followed by a 1 minute wash in 20 mM Tris-HCl. Biotin linked to the array was stained with 0.3 μg ml^−1 Cy5-streptavidin in 10 mM Tris-HCl, pH7.4, 1% alkali-soluble casein, 0.05% TWEEN-20 non-ionic detergent at room temperature for 1 hour. Cy5 fluorescence intensity was measured with a fluorescence scanner at a resolution of 2 μm and a wavelength of 635 nm.
Target sequence in this assay (as listed by the source): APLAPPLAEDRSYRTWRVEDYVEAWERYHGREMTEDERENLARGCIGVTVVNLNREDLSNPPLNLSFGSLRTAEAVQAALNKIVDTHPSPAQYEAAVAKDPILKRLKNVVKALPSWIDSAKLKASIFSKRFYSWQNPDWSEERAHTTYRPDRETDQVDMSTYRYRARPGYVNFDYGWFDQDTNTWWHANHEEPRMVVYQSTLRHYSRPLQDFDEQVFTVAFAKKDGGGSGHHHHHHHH

[2] = system: KalbTG; assay: GLDH-coupled assay in solution (NADH oxidation); conditions: NADH oxidation at 340 nm, 37° C.
Description: KalbTG activity was obtained by measuring incorporation of a biotinylated amine-donor on the peptide array and rates of NADH oxidation at 340 nm and 37° C. in the presence of amine-donor substrate (500 μM) in the GLDH-coupled assay using 100 μM each of nine of the best-performing array-selected glutamine-containing substrates and of two S. mobaraensis MTG glutamine-containing substrates. […] Testing of the top sequences in Table 1 confirmed YRYRQ (SEQ ID NO: 1) and RYRQR (SEQ ID NO 14) as the top performing 5-mer substrates, with turnover rates of 3.52±0.08 pmol NADH s^−1 and 3.60±0.12 pmol NADH s^−1, respectively.
With reference to Table 2, KalbTG activity was obtained by measuring incorporation of a biotinylated glutamine-donor and rates of NADH oxidation at 340 nm and 37° C. in the presence of glutamine-donor substrate (200 μM) in the GLDH-coupled assay using 100 μM each of i) six of the top-performing array-selected lysine substrates, ii) cadaverine, and iii) preferred MTG lysine substrate ARSKL (SEQ ID NO:30). […] This is a small but significant increase over cadaverine (3.51±0.12 pmol s^−1) or ARSKL (SEQ ID NO:30) (3.87±0.31 pmol s^−1), a peptide previously established as a preferred MTG lysine donor motif on the peptide array. Additional details on the S. mobaraensis MTG substrate peptide ARSKL (SEQ ID NO:30) can be found in U.S. Provisional Patent Application Ser. No. 62/094,495 to Albert et al. filed on Dec. 19, 2014.
For the GLDH coupled assay, to determine whether the KalbTG peptides selected in the array assay were also preferred substrates in a solution reaction and to quantify cross-reactivity of KalbTG and S. mobaraensis MTG with various substrates, a continuous glutamate dehydrogenase (GLDH)-coupled assay for S. mobaraensis MTG activity (see Oteng-Pabi, et al., 2013. Analytical biochemistry 441(2): 169-173) was applied.
For glutamine substrate evaluation, the assay was performed in a transparent 96-well microtiter plate in the presence of 500 μM α-ketoglutarate, 500 μM or 1 mM cadaverine as Amine donor substituting for a lysine-containing peptide, 2 U ml^−1 of glutamate dehydrogenase (GLDH), 500 μM NADH and glutamine-containing substrate peptide (Z-[[…] (SEQ ID NO:77)], Z-[[…] (SEQ ID NO:78)], Z-[[…] (SEQ ID NO:75)], Z-[[…] (SEQ ID NO:79)], Z-[[…] (SEQ ID NO:80)], Z-[[…] (SEQ ID NO:81)], Z-[[…] (SEQ ID NO:82)], Z-[[…] (SEQ ID NO:83)], Z-[[…] (SEQ ID NO:84)], Z-[[…] (SEQ ID NO:85)], Z-[[…] (SEQ ID NO:86)], Z-[[…] (SEQ ID NO:76)] or Z-[[…] (SEQ ID NO:87)]) concentrations ranging between 0 and 1 mM in 200 mM MOPS, 1 mM EDTA pH 7.2 (total volume per well 200 μl).
For amine substrate evaluation, assay conditions were the same as for glutamine substrate evaluation with the exception that 100 μM each of amine substrate (Z-[[…] (SEQ ID NO:88)], Z-[[…] (SEQ ID NO:89)], Z-[[…] (SEQ ID NO:90)], Z-[[…] (SEQ ID NO:91)], Z-[[…] (SEQ ID NO:92)], Z-[[…] (SEQ ID NO:93)], Z-[[…] (SEQ ID NO:94)], Z-[[…] (SEQ ID NO:95)] or cadaverine) and 200 μM glutamine donor (Z-[[…] (SEQ ID NO:75)] or Z-[[…] (SEQ ID NO:76)]) were used.
Reactions were started by the addition of 5 μg ml^−1 of S. mobaraensis MTG or KalbTG and the oxidation of NADH was continuously recorded at 340 nm for 60 minutes using a Biotek Synergy H4 microplate reader, temperature controlled at 37° C., with short shaking intervals before each measurement. After a short lag phase where the GLDH was saturated by transglutaminase-mediated release of ammonia, linear rates of absorbance versus time corresponding to transglutaminase turnover were observed and subjected to Michaelis-Menten kinetic analysis. […]

[3] = system: KalbTG; assay: 5-mer peptide array, lysine-substrate screening with biotinylated glutamine donor; conditions: incorporation of biotinylated glutamine-donor on 5-mer peptide array
Excerpt: A second round of maturation on the peptide array yielded […] (SEQ ID NO:24) as the top performing 9-mer substrate, which was then resynthesized as biotinylated peptide to act as acyl donor for the discovery of optimized lysine recognition motifs back on the 5-mer peptide array (FIG. 4B). Again, six of the best lysine-containing peptides were resynthesized and tested in the KalbTG in-solution activity assay using a peptide containing the optimized glutamine recognition sequence YRYRQ (SEQ ID NO:1) as an acyl donor (Table 2). It will be appreciated that calculation of an array signal for cadaverine was not applicable due to omission of cadaverine from the array.
as §1
Target sequence in this assay (as listed by the source): as above
In order to test KalbTG specificity for lysine substrates, chemically synthesized Z-[[…] (SEQ ID NO:31)]-PEG-Biotin peptide—which includes the sequence […] (SEQ ID NO:31)—was used as a glutamine-containing substrate to biotinylate lysine-containing peptides. Array biotinylation was done as described above with 0.1 ng μl^−1 KalbTG, 0.8 μM peptide at 37° C. for 15 minutes. Note that the a “Z—” in front of a peptide or other like construct is used herein to represent a carboxybenzyl group unless stated otherwise.

[4] = 100 μM glutamine-containing substrate, 500 μM amine-donor substrate
[5] = 100 μM amine substrate, 200 μM glutamine-donor substrate

Compound | Array signal (log2) [1] [log2] | Reaction rate in solution [2, 4] [pmol/s] | Array signal (log2) [3] [log2] | Reaction rate in solution [2, 5] [pmol/s] | Reaction rate in solution ([2]; 100 μM amine substrate, 200 μM glutamine-donor substrate, listed as cadaverine) [pmol/s]
RYRQR (Cbz-RYRQR) [KalbTG glutamine-donor 5-mer] | 8.96 | 3.60 ± 0.12 |  |  | 
QRQRQ (Cbz-QRQRQ) [KalbTG glutamine-donor 5-mer] | 8.77 | 2.98 ± 0.01 |  |  | 
FRQRQ (Cbz-FRQRQ) [KalbTG glutamine-donor 5-mer] | 8.93 | 3.07 ± 0.17 |  |  | 
RYSQR (Cbz-RYSQR) [KalbTG glutamine-donor 5-mer] | 8.93 | 3.22 ± 0.10 |  |  | 
QYRQR (Cbz-QYRQR) [KalbTG glutamine-donor 5-mer] | 8.70 | 1.92 ± 0.07 |  |  | 
RYESK (Cbz-RYESK) [KalbTG lysine (K-tag) 5-mer] |  |  | 12.65 | 4.47 ± 0.16 | 
RYGKS (Cbz-RYGKS) [KalbTG lysine 5-mer] |  |  | 12.38 | 2.66 ± 0.11 | 
RYRSK (Cbz-RYRSK) [KalbTG lysine 5-mer] |  |  | 12.45 | 3.26 ± 0.10 | 
RQRQR (Cbz-RQRQR) [KalbTG glutamine-donor 5-mer] | 8.84 | 2.06 ± 0.08 |  |  | 
NCCCCCN [Cadaverine, reference compound] |  |  |  | 3.51 ± 0.12 | 3.51 ± 0.12
RYSKY (Cbz-RYSKY) [KalbTG lysine (amine-donor) 5-mer] |  |  | 12.75 | 3.89 ± 0.04 | 
ARSKL (Cbz-ARSKL) [preferred MTG lysine substrate, reference compound] |  |  | 12.0 | 3.87 ± 0.31 | 
YKGRG (Cbz-YKGRG) [KalbTG lysine 5-mer] |  |  | 12.25 | 3.01 ± 0.09 | 
YKYRQ (Cbz-YKYRQ) [KalbTG glutamine-donor 5-mer, lysine-containing] | 8.70 | 4.00 ± 0.18 |  |  | 
AYRTK (Cbz-AYRTK) [KalbTG lysine 5-mer] |  |  | 12.57 | 3.65 ± 0.17 | 
FRQRG (Cbz-FRQRG) [KalbTG glutamine-donor 5-mer] | 8.82 | 2.11 ± 0.13 |  |  | 

Reference: patent US11054425B2, “System and method for identification and characterization of transglutaminase species” (Roche Sequencing Solutions, Inc., priority 2014, dated 2021)
